# Reference: publication PMC7262662 (BioMed Research International, 2020)
# Where two headings read alike, the source gives them in different places. Marks after values point to notes of the source that are not given here.
# Key:
# [1] = test system: FIPV-infected cells; assay: Feline-specific magnetic bead-based multiplex immunoassay; format: cell-based; conditions: 20 μM
# Procedure: The culture supernatant was centrifuged and used for the bead-based multiplex immunoassay, while the attached cells were trypsinised and collected for the cellular proinflammatory cytokine mRNA expression study.
# Nineteen immune-related proteins including cytokines, chemokines, growth factors, and other immunologically active proteins were measured using a commercially available feline-specific magnetic bead-based multiplex immunoassay. The Feline Cytokine/Chemokine Magnetic Bead Panel Premixed (FCYTOMAG-20K-PMX; EMD Millipore, Billerica, MA, USA) was purchased and used according to the manufacturer's recommendation. Quality control samples, standards, and sets of culture sample were run on plates in duplicate. Prior to measurement, the culture samples were concentrated using Concentrator 5301 (Eppendorf, Hamburg, Germany). The plates were evaluated using MAGPIX® (Luminex, Austin, TX, USA); subsequently, the results were analysed using MILLIPLEX Analyst v.5.1 (EMD Millipore, Billerica, MA, USA).
# [2] = Pharmacokinetics study in healthy cats (plasma curcumin by HPLC); format: in vivo; conditions: for Curcumin content in plasma: any interval, not detected, below detection limit of HPLC; for Tmax / Cmax / AUC(0-t): po, 250 mg/kg; for Cmax: plasma curcumin
# Procedure: Single-dosing (s.i.d.) and two-dosing (b.i.d.) oral administration of curcumin and Cur-CS nanoparticle pharmacokinetics study spanning 24 h was performed in the cats, which weighed 1.5–3.5 kg. The cats were randomly divided into four groups, and each group contained four cats. […] Prior to and 0.5, 1, 2, 3, 4, 8, 12, and 24 h after the treatments, 1 mL blood was harvested via jugular, cephalic, or saphenous venipuncture into lithium heparinized tubes (BD, Franklin Lakes, NJ, USA). The plasma was immediately centrifuged at 500 g for 5 min at 4°C and stored at -80°C until use. The cats then underwent a 2-week washout and rest period prior to testing on the following treatment and series of blood collection. All the cats were neutered at the end of the study and adopted by the public. Curcumin was extracted from plasma using the polar solvent extraction method. Ethyl acetate (500 μL) was added to 200 μL plasma and vortexed for 10 min. The samples were centrifuged at 4000 g at 10°C for 15 min, and the upper ethyl acetate layer was transferred to a new 1.5 mL tube. The extraction was repeated twice and performed under dim light conditions to prevent the degradation of curcumin. […] An aliquot of a 20 μL sample was analysed for quantifying the curcumin in the plasma by HPLC. The curcumin was quantified using a Series 1200 Quaternary HPLC system (Agilent Technologies, Santa Clara, CA, USA) with an UV-Vis detector equipped with an Eclipse Plus C18 column (Agilent Technologies). The HPLC system was first optimised as previously described and further adjusted to suitable settings. […] The flow rate of the mobile phase was maintained at 1 mL/min with an injection volume of 20 μL sample, where the column temperature was maintained at 35°C. The detector signal of the HPLC system for curcumin detection was adjusted to 425 nm. A 6-point calibration curve was prepared by serial dilution of 1 mg/mL curcumin stock solution in methanol. Curcumin concentrations (ng/mL) in the plasma were calculated based on the calibration curve. Time to reach maximum plasma concentration (Tmax) and maximum plasma concentration (Cmax) values were obtained directly from the measured data. The area under the curve from 0 to t (AUC0-t) was calculated using the linear-log trapezoidal method.
# [3] = plasma, oral 250 mg/kg, single dosing (s.i.d.)
compound,measurement,setting,value
COc1cc(/C=C/C(=O)CC(=O)/C=C/c2ccc(O)c(OC)c2)ccc1O [Curcumin],TNFα concentration,"[1]; 24 h, infected cells untreated 38.13 ± 0.00",37.40 ± 1.04^b pg/mL
same,IL-18 concentration,"[1]; 24 h, infected cells untreated 60.62 ± 3.50",47.92 ± 1.73^ab pg/mL
same,KC concentration,"[1]; 24 h, infected cells untreated 80.76 ± 3.71",58.52 ± 15.92^bc pg/mL
same,SDF-1 concentration,"[1]; 24 h, infected cells untreated 161.3 ± 7.1",163.5 ± 3.1^b pg/mL
same,PDGF-BB concentration,"[1]; 24 h, infected cells untreated 445.6 ± 18.7",446.0 ± 0.0^b pg/mL
same,RANTES concentration,"[1]; 24 h, infected cells untreated 868.6 ± 62.1",746.7 ± 18.3^c pg/mL
same,MCP-1 concentration,"[1]; 24 h, infected cells untreated 934.8 ± 0.0",934.8 ± 0.0^c pg/mL
same,IL-8 concentration,"[1]; 24 h, infected cells untreated 2078.0 ± 138.6",1509.5 ± 16.3^c pg/mL
same,TNFα concentration,"[1]; 48 h, infected cells untreated 46.83 ± 6.11",35.18 ± 2.09^a pg/mL
same,IL-6 concentration,"[1]; 48 h, infected cells untreated 108.06 ± 4.85",54.75 ± 6.34^∗ pg/mL
same,SDF-1 concentration,"[1]; 48 h, infected cells untreated 158.2 ± 0.9",84.2 ± 2.9^a pg/mL
same,KC concentration,"[1]; 48 h, infected cells untreated 266.1 ± 35.2",186.4 ± 14.2^c pg/mL
same,PDGF-BB concentration,"[1]; 48 h, infected cells untreated 440.5 ± 43.1",354.2 ± 30.0^a pg/mL
same,MCP-1 concentration,"[1]; 48 h, infected cells untreated 934.2 ± 57.9",735.5 ± 34.2^a pg/mL
same,IL-8 concentration,"[1]; 48 h, infected cells untreated 1660.0 ± 196.6",1074.5 ± 9.2^b pg/mL
same,RANTES concentration,"[1]; 48 h, infected cells untreated 2317.0 ± 355.0",618.6 ± 70.8^b pg/mL
same,Curcumin content in plasma,[2]; 50 mg/kg,< 25 ng/mL
same,Curcumin content in plasma,[2]; 100 mg/kg,< 25 ng/mL
same,Tmax,"[2]; cat, plasma, oral 250 mg/kg, b.i.d. study, as stated in the text (similar to s.i.d. profile)",2 to 4 h
same,AUC0-12 as share of AUC0-∞,[2]; oral 250 mg/kg,more than 80%
same,AUC(0-inf),[2]; [3],1.37 ± 0.112 µg·h/mL
same,Tmax,[2]; [3],3 h
same,Cmax,[2]; [3],0.22 ± 0.0186 µg/mL
same,AUC(0-t),"[2]; plasma, oral 250 mg/kg, single dosing (s.i.d.), read-out: AUC0-12",1.14 ± 0.137 µg·h/mL
same,Cmax,"[2]; plasma, oral 250 mg/kg, two dosing (b.i.d.) 12 h apart",0.241 ± 0.0271 µg/mL
same,Tmax,"[2]; plasma, oral 250 mg/kg, two dosing (b.i.d.), after the second dose",4 h
same,AUC(0-t),"[2]; plasma, oral 250 mg/kg, two dosing (b.i.d.), read-out: AUC0-12",1.51 ± 0.0724 µg·h/mL
same,AUC(0-t),"[2]; plasma, oral 250 mg/kg, two dosing (b.i.d.), read-out: AUC0-24",3.1 ± 0.176 µg·h/mL
